The subject of one data set is streptavidin. Nature of the data set: Endocytosis of fluorescent streptavidin by NRK cells. The data set is classed as cell-based, rat. Here is the method: FIG. 11: (A) Treating NRK cells with increasing concentrations of HB-3-003 in the presence of fluorescently tagged streptavidin leads to increased internalization of streptavidin after a 90 min treatment. (B) Quantification of dose response.
In order to determine the ability of this pathway to clear specifically targeted proteins from the extracellular environment, we synthesized a pentapeptide harboring the electrophilic warhead and a PEG-4 biotin conjugated to the DAB substituted Y amino acid (HB2110). Streptavidin is expected to bind to the biotin arm of the probe, and thus be endocytosed along with the rest of the complex as previously described. To test this hypothesis NRK cells were treated with 2 μM HB2110 and 1 μM Cy5-conjugated streptavidin.
We also synthesized the equivalent pentapeptide harbouring a Gln residue in the place of the electrophilic warhead, with biotin conjugated to the DAB substituted Y amino acid through a PEG linker (HB3-3). We then assed the ability of cells to endocytose fluorescent streptavidin in the presence of HB3-3 and α2M.

A further data set concerns α2M. In words: Internalization of fluorescently labeled α2M by NRK cells in the presence of unlabeled TG2 inhibitors. The data set is classed as cell-based, rat. Conditions: 100 μM cystamine by itself. The procedure: FIG. 5A-5C: (A) HB-225 induces a dose dependent uptake of fluorescently tagged α2M.
To identify the conformational requirements for high-affinity recognition of TG2 by α2M, fluorescently labeled α2M was added to NRK cell cultures in the presence of different (unlabeled) TG2 inhibitors.

For a further data set, the system named is TG2. Conditions: role: inhibitor; absence of active site occupancy; Palanski and Khosla, 2018; cited from earlier work.
Data set [1] relates to clathrin mediated endocytosis. In words: Inhibition of α2M / 33-mer endocytosis by inhibitors of clathrin mediated endocytosis in NRK cells. Type of data set: cell-based, rat. An excerpt:
FIG. 7A-7D: (A) Endocytosis of α2M (green) and 33 mer gluten peptide (red) by NRK cells.
Low density lipoprotein (LDL) receptor-related protein 1 (LRP-1, a.k.a., (α2M receptor or CD91), a member of the LDL receptor family, is responsible for receptor-mediated endocytosis of α2M. Although this receptor is expressed on the surface of a wide range of cell types within the body, α2M endocytosis by LRP-1 is only triggered when this ubiquitous plasma protein undergoes a conformational change upon binding to its protease or non-protease ligands (Bres and Faissner, 2019). We sought to establish whether endocytosis of the ternary α2M-TG2-peptide complex was mediated by LRP-1 using pharmacologic inhibitors of clathrin mediated endocytosis.

In the next data set the target is T1, human TG2 (Homo sapiens, UniProt P21980).
T1 sequence (P21980 1-687): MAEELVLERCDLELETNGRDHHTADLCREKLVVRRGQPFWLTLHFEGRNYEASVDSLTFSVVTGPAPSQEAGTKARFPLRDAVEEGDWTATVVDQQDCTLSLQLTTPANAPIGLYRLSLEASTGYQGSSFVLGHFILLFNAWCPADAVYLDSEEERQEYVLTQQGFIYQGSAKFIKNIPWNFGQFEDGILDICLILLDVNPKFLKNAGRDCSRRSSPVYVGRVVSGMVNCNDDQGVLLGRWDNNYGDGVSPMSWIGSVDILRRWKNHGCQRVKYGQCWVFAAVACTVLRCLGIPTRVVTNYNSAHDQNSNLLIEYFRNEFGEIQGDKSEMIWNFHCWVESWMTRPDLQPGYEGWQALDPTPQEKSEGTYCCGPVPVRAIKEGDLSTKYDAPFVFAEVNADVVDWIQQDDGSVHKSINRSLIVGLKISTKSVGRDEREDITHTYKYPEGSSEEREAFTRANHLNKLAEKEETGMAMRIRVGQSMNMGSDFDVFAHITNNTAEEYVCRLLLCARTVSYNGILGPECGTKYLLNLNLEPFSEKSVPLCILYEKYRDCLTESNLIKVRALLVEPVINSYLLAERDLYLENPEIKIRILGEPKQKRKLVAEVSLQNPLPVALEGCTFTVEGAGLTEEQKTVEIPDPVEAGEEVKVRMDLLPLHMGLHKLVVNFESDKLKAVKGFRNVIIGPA
In words: Steady-state kinetic analysis / TG2 inhibition. Type of data set: biochemical. The note with it: role: inhibitor, substrate PQLPF and inhibitor concentrations varied. An excerpt:
FIG. 1: Kinetic analysis of TG2 inhibition by HB-225. Both substrate (PQLPF) and inhibitor concentrations were varied.
FIG. 2: Comparison of TG2 inhibition by HB-225 and HB-230. The two compounds have very similar kinetic properties.
Encouraged by this finding, we went on to design and synthesize our target fluorescent probe, HB230, in which a second unnatural amino acid residue, diaminobutyrate (DAB), was installed in place of Leu (L) in HB225. This residue was also predicted to neither be recognized by TG2 nor HLA-DQ2. Attachment of a Sulfo-Cy5 fluorophore via amide linkage to the DAB residue yielded the desired probe.

In data set [2] the test system is normal rat kidney (NRK) cells. Nature of the data set: Uptake of fluorescent probe by NRK cells with or without α2M. The data set is classed as cell-based. An excerpt: (C) Fluorescently tagged α2M colocalizes strongly with HB-230.
FIG. 15. Uptake of HB-2121.
Puncta of two distinct sizes were observed.
To verify that HB230 internalization was dependent on TG2 activity, HB258 was designed and synthesized as a control probe. This dihydro-analog is otherwise identical to HB230 but lacks its electrophilic warhead and is therefore unable to irreversibly bond to the active site C277 residue of TG2.

Data set [3] has as its system NRK cells. Nature of the data set: Intracellular payload (Cy5) release in NRK cells with or without cathepsin B inhibitor. The data set is classed as cell-based, rat. The procedure:
FIG. 13A-13B: (A) HB-2108 is strongly endocytosed and cleaved leading to diffuse staining, (B) Inhibiting Cathepsin B mitigates diffuse pattern.
We synthesized HB2108, by linking AcPQLPF to Cy5 via a cathepsin-labile valine-citrulline linker. NRK cells were then treated with HB2108 and α2M in the presence and absence of a cathepsin B inhibitor.

A further data set deals with chymotrypsin. Nature of the data set: Metabolism by chymotrypsin. Type of data set: in vitro ADME. The note with it: role: substrate. From the text: (§1) FIGS. 14A-14B. Metabolic stability of HB-230 and HB-2121. (A) HB-230 is transformed by chymotrypsin to give the C-terminal carboxylic acid. This metabolite is subsequently cleaved by carboxypeptidase to give the tetrapeptide without the terminal phenylalanine. (B) HB-2121 is stable to both chymotrypsin and carboxypeptidase mediated metabolism.
(§2) HB-2121 is analogous to the TG2 inhibitor/probe HB-230 but with one modification; the primary amide C-terminus of HB-230 was replaced with a tertiary dimethyl amide. This change greatly enhances the gastrointestinal stability of the probe.

A further data set deals with carboxypeptidase. Nature of the data set: Metabolism by carboxypeptidase. Type of data set: in vitro ADME. Conditions: role: substrate, subsequent to chymotrypsin.
From the text: as §1, §2

Data set [4] has as its system NRK cells. Nature of the data set: Co-localized endocytosis of Sulfo-Cy5 33-mer gluten peptide and fluorescent α2M in NRK cells. The data set is classed as cell-based, rat. Conditions: Sulfo-Cy5-tagged 33 mer; compared with α2M and HB230. Here is the method:
FIGS. 6A-6B: Fluorescently tagged 33 mer peptide (A) induces a similar pattern of internalization of α2M as HB-230 (B).
Thus far, endocytosis of the TG2-α2M complex had exclusively been visualized using peptidic probes that irreversibly label the active site of TG2. To investigate whether transient enzyme-substrate complexes can be efficiently internalized in an α2M-dependent manner, NRK cells were co-incubated with fluorescent α2M and the aforementioned 33-residue gluten peptide (33 mer) tagged with a Sulfo-Cy5 fluorophore.

In another data set the test system is cubilin. In words: Depletion of cell surface cubilin on NRK cells. The data set is classed as cell-based, rat. The procedure: FIG. 12A-12C: (A) Treating NRK cells with increasing concentrations of HB-3-002 leads to decrease of cell membrane cubilin after a 90 min treatment. (B) Quantification of dose response.
Cell surface proteins can also be pharmacological targets. Thus we targeted cubilin, the canonical receptor for the intrinsic factor (IF)-vitamin B12 complex. We synthesized a pentapeptide harbouring a Gln residue in the X position, and vitamin B12 conjugated to the DAB substituted Y amino acid through a PEG-5 linker (HB3-2). […] Cubilin is stained using a sheep anti cubilin antibody which recognizes rat cubilin and an ovine Alexa-647 secondary antibody.

The mark [5] stands for this setting: high concentrations of both the probe and α2M.

Residues, ends and D or L forms follow the SMILES beside them.

As for `O=C(O)CCCC[C@@H]1SC[C@@H]2NC(=O)N[C@@H]21` [Biotin, reference compound], the “uptake of streptavidin by individual components” value with streptavidin (component alone, NRK cells) is on record as “do not lead to increased uptake of streptavidin”.

On to `NCCSSCCN` [Cystamine, cystamine], for which, in the data set with α2M, the “internalization of fluorescent α2M” value is listed as “unable to promote rapid internalization of fluorescent α2M by itself”. Moreover, the “inactivation of TG2” value in the data set with TG2 is recorded as “inactivates TG2 by promoting C370-C371 disulfide bond formation”.

With `O=C(N/N=C/c1cc(O)c(O)cc1O)c1cc2ccccc2cc1O` [Dyno-4a], the “inhibition of α2M and peptide colocalization as large endocytic puncta” value (“inhibition … as large endocytic puncta” for short) in data set [1] (20 uM Dyno-4a) is listed as “strong inhibition”.

As for `CC(=O)N1CCC[C@H]1C(=O)N[C@@H](CCC(N)=O)C(=O)N[C@@H](CCC(=O)NCCOCCOCCNC(=O)CCCC[C@@H]1SC[C@@H]2NC(=O)N[C@@H]21)C(=O)N1CCC[C@H]1C(=O)N[C@@H](Cc1ccccc1)C(N)=O` [HB-3-003] (HELM PEPTIDE1{[ac].P.Q.E.P.F.[am]}|CHEM1{[O=C(CCCC[C@@H]1SC[C@@H]2NC(=O)N[C@@H]21)NCCOCCOCCN[*:1]]}$PEPTIDE1,CHEM1,4:R3-1:R1$$$V2.0), in the data set on streptavidin (presence of α2M, 90 min), the “endocytosis of fluorescent streptavidin” value was “endocytosed in an HB3-3 dose dependent manner”.

At human TG2, `CC(=O)N1CCC[C@H]1C(=O)N[C@@H](CC/C=C/C(=O)N(C)C)C(=O)N[C@@H](CC(C)C)C(=O)N1CCC[C@H]1C(=O)N[C@@H](Cc1ccccc1)C(N)=O` [HB-225] (HELM PEPTIDE1{[ac].P.[CN(C)C(=O)/C=C/CC[C@H](N[*:1])C(=O)[*:2]].L.P.F.[am]}$$$$V2.0) came in with a Ki of 13 µM. Besides, the kinact on human TG2 (read-out: ki (inactivation of TG2) (converted)) was 0.000833 s⁻¹.

Take `CC(=O)N1CCC[C@H]1C(=O)N[C@@H](CCCCC(=O)N(C)C)C(=O)N[C@@H](CCNC(=O)CCCCC[N+]1=C(/C=C/C=C/C=C2/N(C)c3ccc(S(=O)(=O)O)cc3C2(C)C)C(C)(C)c2cc(S(=O)(=O)[O-])ccc21)C(=O)N1CCC[C@H]1C(=O)N[C@@H](Cc1ccccc1)C(N)=O` [HB-258]: in data set [2] (setting [5]), the “appearance of intracellular puncta” value is reported as “only appears as small intracellular puncta” and the “uptake by NRK cells (probe without electrophilic warhead)” value is “does not undergo significant uptake by NRK cells”.

`CC(=O)N1CCC[C@H]1C(=O)N[C@@H](CCC(N)=O)C(=O)N[C@@H](CC(C)C)C(=O)N1CCC[C@H]1C(=O)N[C@@H](Cc1ccccc1)C(=O)N[C@H](C(=O)N[C@@H](CCCNC(N)=O)C(=O)NCCCCCCNC(=O)CCCCC[N+]1=C(/C=C/C=C/C=C2/N(C)c3ccccc3C2(C)C)C(C)(C)c2ccccc21)C(C)C` [HB-2108] (HELM PEPTIDE1{[ac].P.Q.L.P.F.V.[Cit].[CN1/C(=C/C=C/C=C/C2=[N+](CCCCCC(=O)NCCCCCCN[*:1])c3ccccc3C2(C)C)C(C)(C)c2ccccc21]}$$$$V2.0): the “Cy5 staining / colocalization with α2M” value in the data set with NRK cells [3] (absence of cathepsin B inhibitor) was “very diffuse and no longer colocalizes with α2M”; with NRK cells [3] (pre-treatment with cathepsin inhibitor), “remains strongly colocalized with α2M in the lysosome”.

`CC(=O)N1CCC[C@H]1C(=O)N[C@@H](CC/C=C/C(=O)N(C)C)C(=O)N[C@@H](CCNC(=O)CCCCC[N+]1=C(/C=C/C=C/C=C2/N(C)c3ccc(S(=O)(=O)O)cc3C2(C)C)C(C)(C)c2cc(S(=O)(=O)[O-])ccc21)C(=O)N1CCC[C@H]1C(=O)N[C@@H](Cc1ccccc1)C(=O)N(C)C` [HB-2121]: the “uptake by NRK cells with or without α-2-macroglobulin” value in data set [2] (2 μM HB-2121, with or without 100 μg/mL α-2-macroglobulin) is “α2M-enhanced endocytic uptake”. In addition, the metabolism by chymotrypsin entry in the data set on chymotrypsin is “complete resistance to metabolism”. Moreover, the metabolism by carboxypeptidase entry with carboxypeptidase is “no subsequent metabolism”.

As to `O=C1N=C(NS(=O)(=O)c2cccc3ccccc23)S/C1=C\c1ccc(Br)cc1` [Pitstop-2], the “inhibition … as large endocytic puncta” value in data set [1] (25 uM Pitstop) is on record as “strong inhibition”.

“LQLQPFPQPQLPYPQPQLPYPQPQLPYPQPQPF [33 mer, 33-residue gluten peptide tagged with a Sulfo-Cy5 fluorophore]”: the “co-localized endocytosis with fluorescent α2M” value with NRK cells [4] was “entirely analogous pattern of co-localized endocytosis”.

Take methyl-β-cyclodextrin: in [1] (12.5 mM MβCD), the “inhibition … as large endocytic puncta” value is given as “strong inhibition”.

Turning to vitamin B12 [reference compound], in the data set on cubilin (component alone), the “depletion of cubilin by individual components” value was “do not promote the depletion of cubilin”.

B1: RAP: inhibitor of LRP-1 (protein, UniProt P30533 35-357, looked up)
Alpha-2-macroglobulin …: YSREKNQPKPSPKRESGEEFRMEKLNQLWEKAQRLHLPPVRLAELHADLKIQERDELAWKKLKLDGLDEDGEKEARLIRNLNVILAKYGLDGKKDARQVTSNSLSGTQEDGLDDPRLEKLWHKAKTSGKFSGEELDKLWREFLHHKEKVHEYNVLLETLSRTEEIHENVISPSDLSDIKGSVLHSRHTELKEKLRSINQGLDRLRRVSHQGYSTEAEFEEPRVIDLWDLAQSANLTDKELEAFREELKHFEAKIEKHNHYQKQLEIAHEKLRHAESVGDGERVSRSREKHALLEGRTKELGYTVKKHLQDLSGRISRARHNEL
In the case of B1, the “effect of LRP-1 inhibition on depletion of surface cubilin” value in the data set with cubilin (LRP-1 inhibited through RAP, HB3-2 with intrinsic factor) is recorded as “mitigates the depletion of surface cubilin”.

(Values after US20260364210A1, “COMPOSITIONS AND METHODS FOR TRANSGLUTAMINASE-MEDIATED ENDOCYTOSIS” (The Board of Trustees of the Leland Stanford Junior …, priority 2022, published 2026).)
